Test results published in patent US7939530B2, “Treatment of lymphoma using 10-propargyl-10-deazaaminopterin and gemcitabine” (Sloan-Kettering Institute for Cancer Research, priority 2004, dated 2011).
Several values for one entry are separate records, joined by “and”; a condition that tells them apart may be missing. Identical values can stand only once.

Key:
SKI-DLCL-1 cells = assay: Induction of apoptosis (YO-PRO-1/propidium iodide flow cytometry); type: cell-based, human; conditions: all drugs 1 nM, total exposure 72 hours, sequential: first drug 24 hours prior to second
Description: Ara-C, PDX and Gem in combined and scheduled exposures. In each case, the total exposure time was 72 hours. In sequential treatments, the first drug was administered 24 hours prior to the second drug.
To assess apoptosis occurring as a result of combination therapies, apoptosis was assessed using two well standardized techniques. In the first (YO-PRO), cell membrane permeability was determined by measuring fluorescence of treated and control cells. 2×10^7 SKI-DLBCL cells were treated with either MTX, Ara-C, Gem or PDX alone or combinations of drug given together or scheduled. All drugs were assayed at equimolar concentrations (i.e. 1 nM). The incubation conditions were modeled after the in vitro cytotoxicity experiments. Single agent drugs or combinations of all drugs studied without schedule considerations were incubated for 72 hours, while drugs that were studied in some schedule were introduced in a 24+48 incubation scheme (i.e. drug B added 24 hours following drug A, then incubated for an additional 48 hours for a total incubation time of 72 hours). Cells were then collected, washed twice and re-suspended at a concentration of 1×10^6/mL in DPBS. Membrane permeability was detected via the differential cellular permeability of the fluorescent dyes YO-PRO®-1 and propidium iodide by flow cytometry, as per the manufacturer's guidelines (Vybrant apoptosis kit #4, Molecular Probes, Eugene, Oreg.). In addition to monitoring apoptosis, cell cycle kinetic analyses were also performed on all treated cells based the propidium iodide binding. Apoptotic cells were noted to be permeable to the green fluorescent dye YO-PRO®-1 (em 530, FL-1), and impermeable to the red fluorescent dye propidium iodide (em 575, FL-3). Typically, […] cells allow the entrance of both dyes, whereas living cells are impermeable to both dyes.

[1] = test system: subcutaneous tumors of SKI; assay: Preliminary combination xenograft experiment; type: in vivo, irradiated NOD-SCID mice; conditions: 60 mg/kg; regrowth by day 44 after initial response
Description: Given the experience that SKI-DLCL-1 is the most PDX resistant line in the panel, it was selected for these in vivo synergy experiments. […] All animals were treated with the maximum tolerated dose (MTD) of each drug, save the combination studies.

[2] = cited from earlier work
[3] = test system: human SKI-DLCL-1 (de novo diffuse large B cell) non-Hodgkin's lymphoma xenografts; assay: Subcutaneous lymphoma xenograft treatment; type: in vivo; conditions: MTX 40 mg/kg
Description: (§1) In order to study the effects of PDX on lymphoma growth in vivo, subcutaneous transplantation models in NOD/SCID mice were generated using three established human lymphoma cell line representative of aggressive transformed FL (RL) and de novo extranodal DLBCL (HT; SKI-DLCL-1) histologies. Six to eight week old non-obsese diabetic severe combined immunodeficient (NOD/SCID) mice (Jackson Laboratories, Bar Harbor, Me.) were sub-lethally irradiated with […] from a gamma source and inoculated with 10×10^6 lymphoma cells via a subcutaneous route. When tumor volumes approached 100 mm^3, mice were divided into three groups, averaging 3-8 mice per group. Mice were treated with normal saline or the maximum tolerated dose (MTD) of MTX (40 mg/kg) or PDX (60 mg/kg) via an intraperitoneal route twice weekly for two weeks (four total doses). […] (Sirotnak, et al., Cancer Chemother. Pharmacol. 12: 26-30 (1984); Sirotnak et al., Cancer Chemother. Pharmacol. 42: 313-318 (1998).
(§2) Engraftment rates in this experiment ranged from 80 to 90%. Palpable tumors formed under the skin approximately 7-10 days after inoculation and were readily measurable with calipers. Mice with subcutaneous lymphoma growths survived an average of 40-50 days after inoculation.

[4] = test system: human RL (transformed follicular) non-Hodgkin's lymphoma xenografts; assay: Subcutaneous lymphoma xenograft treatment; type: in vivo; conditions: MTX 40 mg/kg
Description: as §1, §2

[5] = test system: human HT (diffuse large B cell) non-Hodgkin's lymphoma xenografts; assay: Subcutaneous lymphoma xenograft treatment; type: in vivo
Description: as §1, §2

[6] = test system: SKI-DLCL-1 (Diffuse large B Cell) cell line; assay: Growth inhibition in vitro (XTT or Alamar blue); type: cell-based, human
Description: A PDX preparation prepared in accordance with Example 1 and an MTX preparation were tested for cytotoxicity against a panel of five human lymphoma cell lines. Experiments were performed as described previously. (Sirotnak et al., Cancer Chemother. […] Colorimetric dye (XTT or Alamar blue) was added for an addition period of time (XTT dye, 6 hours, Alamar blue, 24 hours). Each plate was then read on an automated plate reader at 590 nm. The percentage of inhibition was calculated as growth of cells exposed to drug divided by growth of controls (cells incubated with media only). […] Experiments were repeated as lest three times.

[7] = test system: caspase 3 in SKI-DLCL-1 cells; assay: Caspase 3 activation (EnzChek Caspase-3 Assay Kit #2, Z-DEVD-R110 cleavage); type: cell-based, human
Description: To further evaluate the activity of PDX and Gem combinations, Caspase activity was tested by EnzChek® Caspase-3 Assay Kit #2 (Molecular Probes) based upon the fluorometric detection of caspase-dependent Z-DEVD-R110 cleavage (rhodamine 110 bis-[N-CBZ-L-aspartyl-L-glutamyl-L-valyl-L-aspartic acid amide], a non-fluorescent bisamide), which, via a two step process, first yields the monoamide product (weakly fluorescent) and then the fluorescent product R110 (rhodamine 110, strongly fluorescent). Detection was performed on a Fluoroskan Ascent FL fluorescent plate reader (Thermo Lab Systems, Helsinki, Finland) according to the manufacturer's guidelines.

[8] = test system: Raji (Burkitt's) cell line; assay: Growth inhibition in vitro (XTT or Alamar blue); type: cell-based, human; conditions: 5 day continuous drug exposure
Description: (§3) A PDX preparation prepared in accordance with Example 1 and an MTX preparation were tested for cytotoxicity against a panel of five human lymphoma cell lines. Experiments were performed as described previously. (Sirotnak et al., Cancer Chemother. Pharmacol. 12: 18-25 (1984). In brief, 2.5 to 5×10^3 cells were plated per well in 96-well flat bottom plates. Drug was added in a 0.9% NaCl solution (pH 7.0) over a range of concentrations, and cells were continuously exposed to drug for 5 days. Colorimetric dye (XTT or Alamar blue) was added for an addition period of time (XTT dye, 6 hours, Alamar blue, 24 hours). Each plate was then read on an automated plate reader at 590 nm. The percentage of inhibition was calculated as growth of cells exposed to drug divided by growth of controls (cells incubated with media only). IC50 values were determined as the drug concentrations at which cell growth was inhibited 50% as compared to controls. Experiments were repeated as lest three times. Experiments were also conducted with continuous drug exposures lasting for 3 and 4 days with results similar to the 5 day results.

[9] = test system: Hs445 (Hodgkin's disease) cell line; assay: Growth inhibition in vitro (XTT or Alamar blue); type: cell-based, human; conditions: 5 day continuous drug exposure
Description: as §3

[10] = test system: HT (Diffuse large B cell) cell line; assay: Growth inhibition in vitro (XTT or Alamar blue); type: cell-based, human; conditions: 5 day continuous drug exposure
Description: as §3

[11] = test system: RL (Transformed follicular) cell line; assay: Growth inhibition in vitro (XTT or Alamar blue); type: cell-based, human; conditions: 5 day continuous drug exposure
Description: as §3

[12] = PDX 60 mg/kg ip twice weekly for two weeks
[13] = MTX 40 mg/kg, PDX 60 mg/kg ip twice weekly for two weeks

C#CCC(Cc1cnc2nc(N)nc(N)c2n1)c1ccc(C(=O)N[C@@H](CCC(=O)O)C(=O)O)cc1 (stereo partly shown) [PDX, 10-Propargyl-10-deazaminopterin]
% change in apoptosis (SKI-DLCL-1 cells): 28.21% | tumor volume as % of initial tumor volume [1]: 739% | maximum tolerated dose (MTD) ([2]; intraperitoneal, twice weekly for two weeks): 60 mg/kg | toxic deaths at the MTD ([2]; nude mice): no toxic deaths | Complete Regression (no/total) ([3]; PDX 60 mg/kg): 3 of 10 and 3/10 | tumor regressions / complete remissions (% of mice) ([3]; PDX 60 mg/kg): 30% | Avg Tumor Diameter (mm ± SE) [3, 12]: 3.5 ± 0.7 mm | Avg change in Tumor Volume (mm^3 ± SE) [3, 12]: −81 ± 16 mm^3 | Weight Change (%) [3, 12]: −1.2% | Complete Regression (no/total) ([4]; PDX 60 mg/kg): 5 of 9 and 5/9 | tumor regressions (% of mice) ([4]; PDX 60 mg/kg): 57% | Avg Tumor Diameter (mm ± SE) [4, 12]: 2.7 ± 1.1 mm | Avg change in Tumor Volume (mm^3 ± SE) [4, 12]: −46 ± 34 mm^3 | Weight Change (%) [4, 12]: −11.1% | Complete Regression (no/total) ([5]; MTX 40 mg/kg, PDX 60 mg/kg): 8 of 9 and 8/9 | complete tumor regression (% of mice) ([5]; MTX 40 mg/kg, PDX 60 mg/kg): 89% | Avg change in Tumor Volume (mm^3 ± SE) [5, 13]: −95 ± 0.8 mm^3 | Weight Change (%) [5, 13]: −8.9% | Avg Tumor Diameter (mm ± SE) ([5]; MTX 40 mg/kg, PDX 60 mg/kg, at the nadir of tumor regression): 0.5 mm and 0.5 ± 0.3 mm | Tumor Regression (%) ([5]; PDX 60 mg/kg, average tumor regression): 99% | IC50 ([6]; SKI-DLCL-1, 5 day continuous drug exposure): 5.1 ± 0.1 nM | EC50 in SKI-DLCL-1 relative to other B-cell lymphoma cell lines ([6]; roughly, fold greater): 2 to 3 fold | Fluorescence at 485ex/527em ([7]; 1 nM, control 134.3): 265.5 | Difference from control ([7]; fluorescence at 485ex/527em): 131.2 | IC50 [8]: 2 ± 0.3 nM | IC50 [9]: 1.6 ± 0.8 nM | IC50 [10]: 2 ± 0.4 nM | IC50 [11]: 23 ± 2 nM
